Experimental data taken from US10308615B2, “Heterocyclic compounds as inhibitors of Vanin-1 enzyme” (Pfizer Inc., priority 2015, dated 2019).

What was measured:
Assay type in all cases: biochemical
human vanin-1 [1] = biological target: T1, human vanin-1 (Homo sapiens (Human), UniProt O95497); assay: Human Vanin-1 Enzyme Assay 1; details: 25 pM human vanin-1, 50 uM pantetheine 7-amino-4-trifluoromethylcoumarin, 30 min preincubation, 60 min
In short: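 Purified His6/FLAG-tagged extracellular domain of human vanin-1, secreted from CHO cells, at 25 pM final in 50 mM Tris-HCl pH 8.0, 50 mM KCl, 0.005% Brij-35, 1.6 mM cysteamine, 0.5% DMSO. Inhibitor preincubated 30 min at room temperature; 50 uM pantetheine-AFC substrate, 60 min, fluorescence at 405/510 nm; 11-point four-fold dilution series.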

human vanin-1 [2] = biological target: T1, human vanin-1; assay: Human Vanin-1 Enzyme Assay 2; details: 1 nM human vanin-1, 10 uM substrate, 45 min
Experimental: Human Vanin-1 Enzyme Assay 2.
The in vitro assay measures enzymatic cleavage of the fluorescently-labeled vanin substrate, pantetheine 7-amino-4-trifluoromethylcoumarin, by human vanin-1.
The vanin-1 protein was prepared in-house from a construct expressing the extracellular domain of human vanin-1 (GenBank ID NM_004666) preceded N-terminally by the honey bee melittin signal peptide, a GSG linker sequence, a His6X tag and a FLAG tag. The secreted, soluble enzyme was purified from the conditioned medium from a CHO cell line stably expressing the resulting protein. Enzyme purification was performed through sequential Ni NTA and size-exclusion chromatography steps.
On the day of the assay, dose response plates were prepared by diluting the inhibitors in DMSO at compound concentration 100-fold the final in-assay concentration. Concentration series were prepared by serially diluting in DMSO in a half-log series for a total of 11 data points. Intermediate compound plates containing compound in 10% DMSO were then created by diluting the compounds 10-fold in assay buffer consisting of 50 mM Tris-HCl pH=8.0, 50 mM KCl, 0.005% Brij-35 and 1.5 mM cysteamine. To begin the assay 3 μL were transferred from the intermediate compound plate to the assay plate.
A working solution of human vanin-1 was prepared by diluting the enzyme stock to 1.25 nM in assay buffer. Next, 24 μL of the vanin-1 working solution were transferred to the assay plate. The enzyme reaction was then initiated by the addition of 3 μL of 100 μM pantetheine 7-amino-4-trifluoromethylcoumarin prepared in assay buffer. The final concentrations in the assay were 1 nM human vanin-1 and 10 uM substrate. The final concentration of DMSO was 1%. The assay plates were incubated for 45 minutes and before they were read on a Spectramax M5 using a 405 nm excitation wavelength and a 505 nm emission wavelength for detection.

human vanin-1 [3] = biological target: T1, human vanin-1; assay: Human Vanin-1 Enzyme Assay 3; details: 2 nM human vanin-1, 10 uM substrate, 15 min
In short: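 His/FLAG-tagged extracellular domain of human vanin-1 from CHO cells, used at 2 nM final, with 10 uM pantetheine-AFC substrate. Buffer: 50 mM Tris-HCl pH 8.0, 50 mM KCl, 0.005% Brij-35, 1.5 mM cysteamine, 1% DMSO. 15 min at room temperature; fluorescence read at 405/505 nm across an 11-point 2-fold dilution series.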

T1 sequence (O95497 22-491): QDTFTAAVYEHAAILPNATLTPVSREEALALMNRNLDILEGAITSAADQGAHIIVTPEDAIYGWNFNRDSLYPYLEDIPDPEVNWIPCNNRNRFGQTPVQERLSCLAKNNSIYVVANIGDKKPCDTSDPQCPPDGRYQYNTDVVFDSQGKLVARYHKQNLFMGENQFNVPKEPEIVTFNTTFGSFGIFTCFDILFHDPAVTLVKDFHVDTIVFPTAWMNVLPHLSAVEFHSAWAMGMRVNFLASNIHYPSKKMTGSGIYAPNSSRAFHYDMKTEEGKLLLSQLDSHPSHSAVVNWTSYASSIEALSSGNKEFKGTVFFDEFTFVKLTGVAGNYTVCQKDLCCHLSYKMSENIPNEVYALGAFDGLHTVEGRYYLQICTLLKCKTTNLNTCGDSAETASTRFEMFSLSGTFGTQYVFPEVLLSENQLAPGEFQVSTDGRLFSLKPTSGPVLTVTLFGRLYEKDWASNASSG

Row | Structure (SMILES) | IC50 (human vanin-1 [1]) [µM] | IC50 (human vanin-1 [2]) [µM] | IC50 (human vanin-1 [3]) [µM]
1 | CC(C)(Nc1ncc(C(=O)c2cccc(C#N)c2)cn1)c1ccccc1 [Example 3, 3-({2-[(2-phenylpropan-2-yl)amino]pyrimidin-5-yl}carbonyl)benzonitrile] | 0.0136 | 0.0153 | 0.075
2 | O=C(c1cnc(NCc2cnccn2)nc1)c1cccc(C(F)(F)F)c1 [Example 11, {2-[(pyrazin-2-ylmethyl)amino]pyrimidin-5-yl}[3-(trifluoromethyl)phenyl]methanone] | 0.0064 | 0.009 | < 0.0062
3 | O=C(c1cnc(NCc2cccnc2)nc1)c1cccc(C(F)(F)F)c1 [Example 12, {2-[(pyridin-3-ylmethyl)amino]pyrimidin-5-yl}[3-(trifluoromethyl)phenyl]methanone] | 0.0019 | 0.0029 | 0.0005
4 | CS(=O)(=O)c1cccc(C(=O)c2cnc(NCc3cccnc3)nc2)c1 [Example 13, [3-(methylsulfonyl)phenyl]{2-[(pyridin-3-ylmethyl)amino]pyrimidin-5-yl}methanone] |  | 0.002 | > 0.0261
5 | Cc1cccc(C(=O)c2cnc(NCc3cccnc3)nc2)c1 [Example 14, (3-methylphenyl){2-[(pyridin-3-ylmethyl)amino]pyrimidin-5-yl}methanone] | 0.0478 | 0.0315 | < 0.013
6 | O=C(c1cnc(NCc2cccnc2)nc1)c1ccccc1F [Example 15, (2-fluorophenyl){2-[(pyridin-3-ylmethyl)amino]pyrimidin-5-yl}methanone] | 0.329 | 0.0924 | 0.17
7 | Cc1cccc(C(=O)c2cnc(NCc3ccc(C(N)=O)cc3)nc2)c1 [Example 23, 4-({[5-(3-methylbenzoyl)pyrimidin-2-yl]amino}methyl) benzamide] | 0.178 | 0.0987 | 0.16
8 | O=C(c1cnc(NCc2ccccc2)nc1)c1cccc(Cl)c1 [Example 24, [2-(benzylamino)pyrimidin-5-yl](3-chlorophenyl) methanone] | 1.24 | 0.317 | 0.274
9 | CC(C)(Nc1ncc(C(=O)c2cccc(Cl)c2)cn1)c1ccccc1 [Example 25, (3-chlorophenyl){2-[(2-phenylpropan-2-yl)amino]pyrimidin-5-yl}methanone] | 0.0741 | 0.0645 | 0.0115
10 | N#Cc1cccc(C(=O)c2cnc(NCc3ccccc3)nc2)c1 [Example 27, 3-{[2-(benzylamino)pyrimidin-5-yl]carbonyl} benzonitrile] | 0.0797 | 0.0404 | 0.0522
11 | N#Cc1cccc(C(=O)c2cnc(NCc3ccc(Cl)cc3)nc2)c1 [Example 28, 3-({2-[(4-chlorobenzyl)amino]pyrimidin-5-yl}carbonyl) benzonitrile] | 0.0382 | 0.0218 | 0.0084
12 | COc1ccc(CNc2ncc(C(=O)c3cccc(C#N)c3)cn2)cc1 [Example 29, 3-({2-[(4-methoxybenzyl)amino]pyrimidin-5-yl}carbonyl) benzonitrile] | 0.122 | 0.0727 | 0.107
13 | N#Cc1cccc(C(=O)c2cnc(NCc3ccc(F)cc3F)nc2)c1 [Example 30, 3-({2-[(2,4-difluorobenzyl)amino]pyrimidin-5-yl}carbonyl) benzonitrile] | 0.0364 | 0.0355 | 0.0168
14 | N#Cc1cccc(C(=O)c2cnc(NCc3ccc(F)cc3)nc2)c1 [Example 31, 3-({2-[(4-fluorobenzyl)amino]pyrimidin-5-yl}carbonyl) benzonitrile] | 0.102 | 0.0572 | 0.014
15 | COc1cccc(C(=O)c2cnc(NCc3ccc(F)cc3)nc2)c1 [Example 37, {2-[(4-fluorobenzyl)amino]pyrimidin-5-yl}(3-methoxyphenyl) methanone] |  | 0.226 | 0.0772
16 | O=C(c1cnc(NCc2cccnn2)nc1)c1cccc(C(F)(F)F)c1 [Example 67, {2-[(pyridazin-3-ylmethyl)amino]pyrimidin-5-yl}[3-(trifluoromethyl)phenyl]methanone] |  | 0.0479 | 0.0816

Row | Structure (SMILES) | IC50 (human vanin-1 [1]) [µM] | IC50 (human vanin-1 [2]) [µM] | IC50 (human vanin-1 [3]) [µM]
17 | Cn1cc(C(=O)c2cnc(NCc3cccnc3)nc2)cn1 [Example 103, (1-methyl-1H-pyrazol-4-yl){2-[(pyridin-3-ylmethyl)amino]pyrimidin-5-yl}methanone] |  | 0.563 | 0.381
18 | O=C(c1cnc(NCc2cncnc2)nc1)c1cccc(C(F)(F)F)c1 [Example 119, {2-[(pyrimidin-5-ylmethyl)amino]pyrimidin-5-yl}[3-(trifluoromethyl)phenyl]methanone] |  | 0.0113 | 0.0061
19 | CS(=O)(=O)c1cccc(C(=O)c2cnc(NCc3ccc(C(N)=O)cc3)nc2)c1 [Example 125, 4-[({5-[3-(methylsulfonyl)benzoyl]pyrimidin-2-yl}amino)methyl] benzamide] |  | 0.0219 | > 1.25
20 | NC(=O)c1cccc(C(=O)c2cnc(NCc3cncnc3)nc2)c1 [Example 136, 3-({2-[(pyrimidin-5-ylmethyl)amino]pyrimidin-5-yl}carbonyl) benzamide] | 0.187 | 0.137 | 
21 | Cn1ncc2ccc(C(=O)c3cnc(NCc4cncnc4)nc3)cc21 [Example 137, (1-methyl-1H-indazol-6-yl){2-[(pyrimidin-5-ylmethyl)amino]pyrimidin-5-yl}methanone] | 0.501 | 1.01 | 
22 | COc1ccc(C(=O)c2cnc(NC(C)c3cncnc3)nc2)cc1 (centres unmarked) [Example 138, (4-methoxyphenyl) (2-{[1-(pyrimidin-5-yl)ethyl]amino}pyrimidin-5-yl)methanone] | 0.194 | 0.437 | 
23 | N#Cc1cccc(C(=O)c2ccc(NCc3cncnc3)nc2)c1 [Example 140, 3-({6-[(pyrimidin-5-ylmethyl)amino]pyridin-3-yl}carbonyl) benzonitrile] | 0.144 | 0.0644 | 
24 | COc1cccc(C(=O)c2cnc(NC(C)c3cncnc3)nc2)c1 (centres unmarked) [Example 142, (3-methoxyphenyl) (2-{[1-(pyrimidin-5-yl)ethyl]amino}pyrimidin-5-yl)methanone] | 0.0171 | 0.0343 | 
25 | COc1cccc(C(=O)c2cnc(NCc3cncnc3)nc2)c1 [Example 143, (3-methoxyphenyl) {2-[(pyrimidin-5-ylmethyl)amino]pyrimidin-5-yl}methanone] | 0.0815 | 0.11 | 
26 | CC(Nc1ccc(C(=O)c2cccc(C#N)c2)cn1)c1cncnc1 (centres unmarked) [Example 144, 3-[(6-{[1-(pyrimidin-5-yl)ethyl]amino}pyridin-3-yl)carbonyl] benzonitrile] | 0.0125 | 0.0198 | 
27 | O=C(c1cnc(NCc2cncnc2)nc1)c1ccc2c(c1)OCCO2 [Example 145, 2,3-dihydro-1,4-benzodioxin-6-yl{2-[(pyrimidin-5-ylmethyl)amino]pyrimidin-5-yl}methanone] | 0.329 | 0.486 | 
28 | COc1cccc(C(=O)c2cnc(NCc3ccc(N4CCN(C)CC4)cc3)nc2)c1 [Example 154, (3-methoxyphenyl) (2-{[4-(4-methylpiperazin-1-yl)benzyl]amino}pyrimidin-5-yl)methanone] |  | 6.41 | 3.79
29 | Cn1ncc2cc(C(=O)c3cnc(NCc4cncnc4)nc3)ccc21 [Example 159, (1-methyl-1H-indazol-5-yl){2-[(pyrimidin-5-ylmethyl)amino]pyrimidin-5-yl}methanone] | 2.75 | 3.08 | 
30 | COc1ccc(C(=O)c2cnc(NC(C)c3ccc(C(N)=O)cc3)nc2)cc1 (centres unmarked) [Example 160, 4-(1-{[5-(4-methoxybenzoyl)pyrimidin-2-yl]amino}ethyl) benzamide] | 3.44 | 7.15 | 
31 | N#Cc1cccc(C(=O)c2cnc(NCC3CCOCC3)nc2)c1 [Example 163, 3-({2-[(tetrahydro-2H-pyran-4-ylmethyl)amino]pyrimidin-5-yl}carbonyl) benzonitrile] | 2.88 | 2.23 | 
32 | CN1CCC(CNc2ncc(C(=O)c3cccc(C#N)c3)cn2)CC1 [Example 164, 3-[(2-{[(1-methylpiperidin-4-yl)methyl]amino}pyrimidin-5-yl)carbonyl] benzonitrile] | 1.81 | 8.57 | 
